How the values were obtained:
plasmin = experiment: Plasmin proteolytic activity in presence of TXA, S-2403 chromogenic substrate; type: biochemical, human; details: plasmin 1 mg/mL; TXA 0.001 mM to 100 mM; FIG. 3
From the text: S-2403 is a commercially available, plasmin specific chromogenic substrate.

[1] = Plasmin activity after storage, S-2403 chromogenic substrate; type: biochemical; details: plasmin 1 mg/mL stored at 0° C. over a 24-hour period; FIG. 4A
Experimental: To assess the compatibility of plasmin as an additive in Cold Storage Solutions, the activity of plasmin at a concentration of 1 mg/mL was assessed at multiple time points whilst stored at 0° C.
(white bars), 25° C. (black bars), or 37° C. (striped bars) for a 24 hour period. The commercial S-2403 plasmin specific chromogenic substrate was used to assess activity at each of the indicated times.
Significant plasmin activity is maintained when formulated with these excipients and diluted into organ preservation and reconditioning solutions. The commercial […] plasmin specific chromogenic substrate was used to assess activity at each of the indicated times.

Row | Molecule | proteolytic activity of plasmin (kinetics) (plasmin) | plasmin activity (kinetics) during storage [1]
1 | NC[C@H]1CC[C@H](C(=O)O)CC1 [TXA, tranexamic acid] | unaltered kinetics | 
2 | plasmin |  | unaltered kinetics

Source: patent publication US20260026495A1, “STABLE PLASMIN COMPOSITIONS FOR ORGAN PRESERVATION AND RECONDITIONING” (Grifols Worldwide Operations Limited, priority 2022, published 2026)
